In patent publication US20060074109A1, “Use of inhibitors of 24-hydroxylase in the treatment of cancer” (Sapphire Therapeutics, Inc., priority 2004, published 2006):

Experiments:
Assay in all cases: Cell growth assay, crystal violet, 11 days
Assay type in all cases: cell-based, human
UT-OC-5 cells = settings: 200 nM VID 400 combined with hormones, especially 1,25(OH)2D3 or EB 1089, 11 days
Method: (§1) The human ovarian adenocarcinoma cell line, OVCAR-3 (ATCC, Manassas, Va.) was maintained, as recommended by the supplier, in RPMI 1640 medium (Sigma Aldrich, St. Louis, Mo.) supplemented with 10% FBS, 10 μg/ml insulin, 0.25% glucose and antibiotics (100 IU/ml penicillin, 100 μg/ml streptomycin). Human ovarian adenocarcinoma cell lines UT-OC-1, UT-OC-2, UT-OC-3, UT-OC-4, UT-OC-5 (Grenman, S., Engblom, P., Rantanen, V., Klemi, P. and Isola, J., “Cytogenetic Characterization of Five New Ovarian Carcinoma Cell Lines,” Acta Obstet. Gynecol. Scand., 76:83 (1997)) and SK-OV-3 and a human keratinocyte cell line HaCaT were grown in DMEM (Sigma Aldrich) with 10% FBS and antibiotics (100 IU/ml penicillin, 100 μg/ml streptomycin), and monkey kidney COS cells were maintained in DMEM/F12 (Sigma Aldrich) with 5% FBS. All cell lines were kept at 37° C. in a humidified 95% air/5% CO2 incubator.
(§2) When OVCAR-3 cells were on the logarithmic growth phase (70% confluent) the growth assay was started. For cell growth assay, 2,000 cell/200 μl/well were plated on 96-well culture plates. […] Ethanol was used as a vehicle, and it was also included in the control. The medium containing ethanol vehicle and/or hormones were changed to a fresh one every third day. Cell growth samples were taken 0, 1, 3, 5, 7, 9 and 11 days after the treatment.
(§3) Relative cell numbers were quantified as described previously (Kueng W, Silber E, Eppenberger U. Quantification of cells cultured on 96-well plates. Anal. Biochem., 182:16-9 (1989)). Cells were fixed on the bottom of the wells by addition of 10 μl of 11% glutaraldehyde solution in 0.1% phosphate buffer to 100 μl of medium. The plate was shaken 500 cycles/min for 15 min, washed 3 times by submersion in de-ionised water and air-dried. Fixed cells were stained with 0.1% solution of crystal violet dissolved in de-ionised water. After 20 min incubation, excess dye was removed by carefully washing with de-ionised water. The plate was air-dried prior to a bound dye solubilisation in 100 μl of 10% acetic acid. Relative cell number was given as absorbance units by measuring the optical density (590 nm) from each well using Victor 1420 multilabel counter (Wallac, Turku, Finland). Six determinations were used to calculate the mean optical density ±SD in each concentration at each time point. The absorbance value of day 0 (an overnight culture of 2,000 cells/well) was set as 0 by subtracting it from each value obtained from adjacent time-point measurements (days 1-11), and based on these values growth curves were created. Experiments were repeated 3-5 times. Day 11 was used to compare the effect of hormone treatments and 24OHase inhibitor. Statistical analyses were done using Student's t-test.
(§4) Cell growth samples were obtained after 11 days treatment.

UT-OC-2 cells = settings: 200 nM VID 400 combined with vitamin D or retinoid compounds
Method: as §1, §2, §3, §4

UT-OC-4 cells = tested on: UT-OC-4 cells
Method: as §1, §2, §3, §4

SK-OV-3 cells = tested on: SK-OV-3 cells
Method: as §1, §2, §3, §4

UT-OC-1 cells = tested on: UT-OC-1 cells
Method: as §1, §2, §3, §4

UT-OC-3 cells = settings: 200 nM VID 400 combined with vitamin D or retinoid compounds
Method: as §1, §2, §3, §4

O=C(NC[C@@H](c1ccccc1)n1ccnc1)c1ccc(-c2ccc(Cl)cc2)cc1 [VID400, 2-(R)-4′-Chlorobiphenyl-4-carboxylic acid (2-imidazol-1-yl-2-phenyl-ethyl)-amide]
effect on cell growth (UT-OC-5 cells): had an inhibitory effect on growth | effect on cell growth (UT-OC-2 cells): growth inhibition was seen | effect on cell growth (UT-OC-4 cells; 200 nM VID 400 combined with 100 nM 1,25(OH)2D3 or EB 1089, 11 days): cell growth was inhibited | effect on growth inhibition (UT-OC-4 cells; 200 nM VID 400 combined with 10 μM ATRA or 9-CRA, 11 days): potentiated this effect | effect on growth inhibition (SK-OV-3 cells; 200 nM VID 400 combined with 9-CRA): potentiated this effect | effect on cell growth (SK-OV-3 cells; 200 nM VID 400 combined with vitamin D compounds): slightly inhibitory effect on growth | inhibition of cell growth (UT-OC-1 cells; 200 nM VID 400 combined with 100 nM EB 1089, 11 days): did so | effect on growth inhibition (UT-OC-1 cells; 200 nM VID 400 combined with 10 μM 9-CRA, 11 days): augmented the growth inhibition | augmentation of growth inhibition (UT-OC-1 cells; 200 nM VID 400 combined with 10 μM ATRA, 11 days): not seen | effect on cell growth (UT-OC-3 cells): growth inhibition was seen
